In brackets after ≈: the same amount, converted by molar mass.
Experiments:
Candida tropicalis [1] = assay: Antifungal activity against FLC-resistant Candida tropicalis; format: functional
Candida albicans [2] = assay: Antifungal activity against Candida albicans 501 by microdilution method; format: functional
Nakaseomyces glabratus [3] = assay: Antifungal activity against Candida glabrata 493 by microdilution method; format: functional
Cryptococcus gattii = assay: Antifungal activity against Cryptococcus gattii after 72 hrs; format: functional, Cryptococcus gattii VGI
Candida albicans [4] = assay: Antifungal activity against Candida albicans ATCC 10231 by microdilution method; format: functional
Pichia kudriavzevii [5] = assay: Antifungal activity against Candida krusei 168 by microdilution method; format: functional
Nakaseomyces glabratus [6] = assay: Antifungal activity against Candida glabrata 507 by microdilution method; format: functional
Candida albicans [7] = assay: Antifungal activity against Candida albicans 53 by microdilution method; format: functional
Candida tropicalis [8] = assay: Antifungal activity against Candida tropicalis 166 by microdilution method; format: functional
Nakaseomyces glabratus [9] = assay: Antifungal activity against Candida glabrata 587 by microdilution method; format: functional
Trichophyton rubrum [10] = assay: Antifungal activity against Trichophyton rubrum after 5 days; format: functional; conditions: 120 h
Nakaseomyces glabratus [11] = assay: Antifungal activity against Candida glabrata 531 by microdilution method; format: functional
Cryptococcus neoformans [12] = assay: Antifungal activity against Cryptococcus neoformans after 72 hrs; format: functional
Nakaseomyces glabratus [13] = assay: Antifungal activity against Candida glabrata 510 by microdilution method; format: functional
Candida parapsilosis [14] = assay: Antifungal activity against Candida parapsilosis 96 by microdilution method; format: functional; conditions: Lodderomyces parapsilosis
Nakaseomyces glabratus [15] = assay: Antifungal activity against Candida glabrata 482 by microdilution method; format: functional
Candida albicans [16] = assay: Antifungal activity against Candida albicans 498 by microdilution method; format: functional
Candida albicans [17] = assay: Antifungal activity against Candida albicans NBRC 1385 by microdilution method; format: functional
Pichia kudriavzevii [18] = assay: Antifungal activity against Candida krusei ATCC 6258; format: functional
Candida parapsilosis [19] = assay: Antifungal activity against Candida parapsilosis 90/2224; format: functional; conditions: Lodderomyces parapsilosis
Nakaseomyces glabratus [20] = assay: Antifungal activity against Candida glabrata ATCC 90030; format: functional
Pichia kudriavzevii [21] = assay: Antifungal activity against Candida krusei CK25; format: functional
Nakaseomyces glabratus [22] = assay: Antifungal activity against Candida glabrata WT-5; format: functional
Candida parapsilosis [23] = assay: Antifungal activity against Candida parapsilosis ATCC 22014; format: functional; conditions: Lodderomyces parapsilosis
Trichophyton rubrum [24] = assay: Antifungal activity against Trichophyton rubrum NBRC 5467 by microdilution method; format: functional
Aspergillus fumigatus = assay: Antifungal activity against Aspergillus fumigatus NBRC 4400 by microdilution method; format: functional
[25] = tested on: Trichophyton mentagrophytes; assay: Antifungal activity against Trichophyton mentagrophytes IFM 46027 by microdilution method; format: functional
Trichophyton rubrum [26] = assay: Antifungal activity against Trichophyton rubrum ATCC MYA3108 by CLSI-based microdilution method; format: functional
Trichophyton rubrum [27] = assay: Antifungal activity against Trichophyton rubrum deltaTruMDR2 by CLSI-based microdilution method; format: functional
Cryptococcus neoformans [28] = assay: Antifungal activity against Cryptococcus neoformans after 48 hrs by broth micro dilution method; format: functional
Candida parapsilosis [29] = assay: Antifungal activity against Candida parapsilosis after 48 hrs by broth micro dilution method; format: functional; conditions: Lodderomyces parapsilosis
Candida albicans [30] = assay: Antifungal activity against Candida albicans after 48 hrs by broth micro dilution method; format: functional
Candida albicans [31] = assay: Antifungal activity against Candida albicans; format: functional, organism-based
Cryptococcus neoformans [32] = assay: Antifungal activity against Cryptococcus neoformans; format: functional

| MIC (Candida albicans [2]) | MIC (Nakaseomyces glabratus [3]) | MIC (Candida albicans [4]) | MIC (Nakaseomyces glabratus [6]) | MIC (Candida albicans [7]) | MIC (Candida tropicalis [8]) | MIC (Nakaseomyces glabratus [9]) | MIC (Nakaseomyces glabratus [11]) | MIC (Nakaseomyces glabratus [13]) | MIC (Candida parapsilosis [14]) | MIC (Nakaseomyces glabratus [15]) | MIC (Candida albicans [16]) | Compound | further results |
| --- | --- | --- | --- | --- | --- | --- | --- | --- | --- | --- | --- | --- | --- |
| – | – | – | – | – | – | – | – | – | – | – | – | O=C(O[C@@H]1Cc2c(O)cc(O)cc2O[C@@H]1c1cc(O)c(O)c(O)c1)c1cc(O)c(O)c(O)c1 [EPIGALOCATECHIN GALLATE] | MIC (Candida tropicalis [1]): ≤ 1 µg/mL |
| > 83 µg/mL | 7.8 to 15.6 µg/mL (≈ 27.2 to 54.5 µM) | > 83 µg/mL | 7.8 to 15.6 µg/mL (≈ 27.2 to 54.5 µM) | > 83 µg/mL | > 83 µg/mL | 7.8 to 15.6 µg/mL (≈ 27.2 to 54.5 µM) | 7.8 to 15.6 µg/mL (≈ 27.2 to 54.5 µM) | 7.8 to 15.6 µg/mL (≈ 27.2 to 54.5 µM) | > 83 µg/mL | 7.8 to 15.6 µg/mL (≈ 27.2 to 54.5 µM) | > 83 µg/mL | O=c1c(O)c(-c2ccc(O)c(O)c2)oc2cc(O)ccc12 [FISETIN] | MIC (Cryptococcus gattii): 128 µg/mL (≈ 447 µM); MIC (Pichia kudriavzevii [5]): > 83 µg/mL; MIC (Trichophyton rubrum [10]): 64 µg/mL (≈ 224 µM); MIC (Cryptococcus neoformans [12]): 128 µg/mL (≈ 447 µM) |
| > 83 µg/mL | 62.5 µg/mL (≈ 281 µM) | > 83 µg/mL | 62.5 µg/mL (≈ 281 µM) | > 83 µg/mL | > 83 µg/mL | 62.5 µg/mL (≈ 281 µM) | 62.5 µg/mL (≈ 281 µM) | 62.5 µg/mL (≈ 281 µM) | > 83 µg/mL | 62.5 µg/mL (≈ 281 µM) | > 83 µg/mL | O=c1cc(-c2ccccc2)oc2ccccc12 [FLAVONE] | MIC (Candida albicans [17]): 30 µM (≈ 6.67 µg/mL); MIC (Pichia kudriavzevii [18]): 2.7 µg/mL (≈ 12.1 µM); MIC (Candida parapsilosis [19]): 5.4 µg/mL (≈ 24.3 µM); MIC50 (Candida tropicalis [8]): 13 to 104 µg/mL (≈ 58.5 to 468 µM); MIC (Nakaseomyces glabratus [20]): 52.7 µg/mL (≈ 237 µM); MIC (Pichia kudriavzevii [21]): 2.7 µg/mL (≈ 12.1 µM); MIC (Nakaseomyces glabratus [22]): 52.7 µg/mL (≈ 237 µM); MIC50 (Candida parapsilosis [14]): 13 to 104 µg/mL (≈ 58.5 to 468 µM); MIC (Candida parapsilosis [23]): 5.4 µg/mL (≈ 24.3 µM); MIC (Trichophyton rubrum [24]): 120 µM (≈ 26.7 µg/mL); MIC (Aspergillus fumigatus): 230 µM (≈ 51.1 µg/mL); MIC [25]: 60 µM (≈ 13.3 µg/mL) |
| > 83 µg/mL | 3.9 to 15.6 µg/mL (≈ 16.4 to 65.5 µM) | > 83 µg/mL | 3.9 to 15.6 µg/mL (≈ 16.4 to 65.5 µM) | > 83 µg/mL | > 83 µg/mL | 3.9 to 15.6 µg/mL (≈ 16.4 to 65.5 µM) | 3.9 to 15.6 µg/mL (≈ 16.4 to 65.5 µM) | 3.9 to 15.6 µg/mL (≈ 16.4 to 65.5 µM) | > 83 µg/mL | 3.9 to 15.6 µg/mL (≈ 16.4 to 65.5 µM) | > 83 µg/mL | O=c1c(O)c(-c2ccccc2)oc2ccccc12 [FLAVONOL] | MIC (Pichia kudriavzevii [5]): > 83 µg/mL |
| – | – | – | – | – | – | – | – | – | – | – | – | O=c1c(-c2ccc(O)cc2)coc2cc(O)cc(O)c12 [GENISTEIN] | MIC (Trichophyton rubrum [26]): > 1000 µg/mL; MIC (Trichophyton rubrum [27]): > 1000 µg/mL |
| – | – | – | – | – | – | – | – | – | – | – | – | O=c1c(O[C@@H]2O[C@H](CO)[C@H](O)[C@H](O)[C@H]2O)c(-c2ccc(O)c(O)c2)oc2cc(O)cc(O)c12 [HYPEROSIDE] | MIC (Cryptococcus neoformans [28]): 128 µg/mL (≈ 276 µM); MIC (Candida parapsilosis [29]): 128 µg/mL (≈ 276 µM); MIC (Candida albicans [30]): 256 µg/mL (≈ 551 µM) |
| – | – | – | – | – | – | – | – | – | – | – | – | CC(C)=CCc1c(O)ccc(C(=O)/C=C/c2ccc(O)cc2)c1O [ISOBAVACHALCONE] | MIC50 (Candida albicans [31]): 3 µg/mL (≈ 9.25 µM); MIC50 (Cryptococcus neoformans [32]): 7 µg/mL (≈ 21.6 µM) |
